Assay: recombinant barcode read abundance after kanamycin selection (control-corrected) (log10(CPM+1)); higher = more efficient recombination; sequences stand for … in AGTGCAGAGAAAATCGGCCAGTTTTCTCTGCCTGCAGTCCGCATGCCGT…AGATTTATGCAGCGGACTGCCTTTCTCCCAAAGTGATAAACCGGACAGTATCATGGACCGGTTTTCCCGGTAATCCGTATTTGCAAGGTTGGTTTCACT; site = the 11-nt target
How it was run: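 Duplicate cultures were plated either on chloramphenicol/ampicillin LB agar, serving as control, or on chloramphenicol/ampicillin/kanamycin with 0.1 mM IPTG. These came from a pooled E. coli library co-electroporated with a donor plasmid, each member pairing a target with an IS621 bridge RNA target-binding loop. Recombination efficiency equals averaged, control-corrected counts per million of recombinant-junction barcodes. It is listed as log10(CPM+1).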
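Also: IS621 recombinase and bridge RNA in Escherichia coli cells.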

In order of falling “recombinant barcode read abundance (log10)” value:
1. GCGAGCCCTTGGGTTCTAACCTGTTGCGT (site GCGAGCCCTAC)  2.52
2. GCCCATGCTTGGGTTCTAACCTGTTGCGG (site GCCCATGCTCC)  2.05
3. GCGAACACTTGGGTTCTAACCTGTTGCTT (site GCGAACACTAA)  1.9
4. GCGCGCCCTTGGGTTCTAACCTGTTGCGG (site GCGCGCCCTCC)  1.63
5. GCGGTGACTTGGGTTCTAACCTGTTGCCT (site GCGGTGACTAG)  1.48
6. GCGTACCCTTGGGTTCTAACCTGTTGCCT (site GCGTACCCTAG)  1.41
7. GCATGTCCTTGGGTTCTAACCTGTTGCAT (site GCATGTCCTAT)  1.37
8. GCGGTATCTTGGGTTCTAACCTGTTGCCT (site GCGGTATCTAG)  1.21
9. GCGGGGTCTTGGGTTCTAACCTGTTGCCT (site GCGGGGTCTAG)  1.2
10. GCGCGTGCTTGGGTTCTAACCTGTTGCCT (site GCACGTGCTAG)  1.11
11. GCGGTGACTTGGGTTCTAACCTGTTGCCT (site ACGGTGACTAG)  0.942
12. GCGGGGTCTTGGGTTCTAACCTGTTGCCT (site ACGGGGTCTAG)  0.786
13. GCCGAGTCTTGGGTTCTAACCTGTTGCTT (site GCCGAGTCTAA)  0.688
14. GCGCTTACTTGGGTTCTAACCTGTTGCCT (site GCGCTTACTAG)  0.665
15. GCGGGGTCTTGGGTTCTAACCTGTTGCCT (site CCGGGGTCTAG)  0.627
16. GCGCCCTCTTGGGTTCTAACCTGTTGCCG (site GCGCCCTCTCG)  0.606
17. GCCGAGTCTTGGGTTCTAACCTGTTGCTT (site GCCGAGTCTTA)  0.6
18. GCGCGTGCTTGGGTTCTAACCTGTTGCCT (site GCGCGTGCTAG)  0.584
19. GCGCGTGCTTGGGTTCTAACCTGTTGCCT (site GCCCGTGCTAG)  0.539
20. GCGCCTCCTTGGGTTCTAACCTGTTGCAT (site GCGCCTCCTAT)  0.504
21. GCCGACCCTTGGGTTCTAACCTGTTGCCG (site GCCGACCCTCG)  0.492
22. GCCTACCCTTGGGTTCTAACCTGTTGCGG (site GCCTACCCTCC)  0.483
23. GCCGAGACTTGGGTTCTAACCTGTTGCCT (site GCCGAAACTAG)  0.48
24. GCGGAAGCTTGGGTTCTAACCTGTTGCCT (site GGGGAAGCTAG)  0.469
25. GCCTGTTCTTGGGTTCTAACCTGTTGCCT (site GCCTGTTCTAG)  0.462
26. GCCAAACCTTGGGTTCTAACCTGTTGCCT (site GCCAGACCTAG)  0.458
27. GCGTACCCTTGGGTTCTAACCTGTTGCCT (site GAGTACCCTAG)  0.404
28. GCCTATTCTTGGGTTCTAACCTGTTGCGT (site GCCTATTCTAC)  0.4
29. GCCATTCCTTGGGTTCTAACCTGTTGCAT (site GCCATTCCTAT)  0.347
30. GCCGAGACTTGGGTTCTAACCTGTTGCCT (site GCCGAGACTAG)  0.34
31. GCGGAAGCTTGGGTTCTAACCTGTTGCCT (site GCGGAAGCTAG)  0.312
32. GCCACTCCTTGGGTTCTAACCTGTTGCGT (site GCCACTCCTAC)  0.297
33. GCCATTACTTGGGTTCTAACCTGTTGCCT (site GCCATGACTAG)  0.297
34. GCCAACCCTTGGGTTCTAACCTGTTGCGT (site GCCAACCCTAC)  0.276
35. GCCGCGACTTGGGTTCTAACCTGTTGCCT (site GCTGCGACTAG)  0.262
36. GCCTGTTCTTGGGTTCTAACCTGTTGCCT (site GACTGTTCTAG)  0.238
37. GCCGCGACTTGGGTTCTAACCTGTTGCCT (site GCCGCGACTAG)  0.236
38. GCGGGGTCTTGGGTTCTAACCTGTTGCCT (site TCGGGGTCTAG)  0.231
39. GCCAACCCTTGGGTTCTAACCTGTTGCGT (site GCCAACCCTAA)  0.212
40. GCCGCGACTTGGGTTCTAACCTGTTGCCT (site GCAGCGACTAG)  0.207
41. GCGCTAGCTTGGGTTCTAACCTGTTGCCT (site GCGCTAGCTAG)  0.205
42. GCCGCGACTTGGGTTCTAACCTGTTGCCT (site GCGGCGACTAG)  0.204
43. GCGAACACTTGGGTTCTAACCTGTTGCTT (site GCGAAGTCTAA)  0.194
44. GCGCCCTCTTGGGTTCTAACCTGTTGCCG (site CAATTACCTAA)  0.194
45. GCGGAAGCTTGGGTTCTAACCTGTTGCCT (site GAGGAAGCTAG)  0.192
46. GCGCTTACTTGGGTTCTAACCTGTTGCCT (site GAGCTTACTAG)  0.191
47. GCCACTCCTTGGGTTCTAACCTGTTGCGT (site GTCAATCCTAC)  0.185
48. GCCAAACCTTGGGTTCTAACCTGTTGCCT (site GCCATACCTAG)  0.184
49. GCGGAAGCTTGGGTTCTAACCTGTTGCCT (site GTGGAAGCTAG)  0.181
50. GCGGTGACTTGGGTTCTAACCTGTTGCCT (site CCGGTGACTAG)  0.172
51. GCCAACCCTTGGGTTCTAACCTGTTGCGT (site GCCAACCCTAT)  0.162
52. GCCAACCCTTGGGTTCTAACCTGTTGCGT (site GCCAACCCTAG)  0.149
53. GCCCATGCTTGGGTTCTAACCTGTTGCGG (site CATTTCACTAG)  0.144
54. GCGCCTCCTTGGGTTCTAACCTGTTGCAT (site GCGACTCCTAT)  0.144
55. GCCTGTTCTTGGGTTCTAACCTGTTGCCT (site GTCTGTTCTAG)  0.137
56. GCCGATACTTGGGTTCTAACCTGTTGCCA (site AGTCTGCCTCA)  0.134
57. GCGCTAGCTTGGGTTCTAACCTGTTGCCT (site ACGCTAGCTAG)  0.125
58. GCCGAGACTTGGGTTCTAACCTGTTGCCT (site GCCGATACTAG)  0.121
59. GCGCTAGCTTGGGTTCTAACCTGTTGCCT (site TCGCTAGCTAG)  0.111
60. GCGCGTGCTTGGGTTCTAACCTGTTGCCT (site GCTCGTGCTAG)  0.11
61. GCGGTATCTTGGGTTCTAACCTGTTGCCT (site GGGGTATCTAG)  0.105
62. GCGCGCCCTTGGGTTCTAACCTGTTGCGG (site GCGCGCCCTCA)  0.101
63. GCCTACCCTTGGGTTCTAACCTGTTGCGG (site GCCGACCCTCG)  0.0988
64. GCCATTACTTGGGTTCTAACCTGTTGCCT (site GCCATTACTAG)  0.0923
65. GCGCTAGCTTGGGTTCTAACCTGTTGCCT (site CCGCTAGCTAG)  0.0832
66. GCCAAACCTTGGGTTCTAACCTGTTGCCT (site GCCACACCTAG)  0.0741
67. GCGGTGACTTGGGTTCTAACCTGTTGCCT (site TCGGTGACTAG)  0.074
68. GCCGAGTCTTGGGTTCTAACCTGTTGCTT (site GCCGAGTCTCA)  0.0689
69. GCGCTTACTTGGGTTCTAACCTGTTGCCT (site GTGCTTACTAG)  0.0591
70. GCGAGCCCTTGGGTTCTAACCTGTTGCGT (site GCTAGCCCTCC)  0.0583
71. GCCTATTCTTGGGTTCTAACCTGTTGCGT (site TCCGATTCTAC)  0.0523
72. GCCGACCCTTGGGTTCTAACCTGTTGCCG (site GCCTACCCTCC)  0.0507
73. GCCAAACCTTGGGTTCTAACCTGTTGCCT (site GCCAAACCTAG)  0.0479
74. GCCATTACTTGGGTTCTAACCTGTTGCCT (site GCCATAACTAG)  0.0468
75. GCCATTCCTTGGGTTCTAACCTGTTGCAT (site AGAGCCACTTA)  0.0467
76. GCCGAGTCTTGGGTTCTAACCTGTTGCTT (site GCCGAGTCTGA)  0.0417
77. GCCATTACTTGGGTTCTAACCTGTTGCCT (site GCCATCACTAG)  0.0409
78. GCCGATTCTTGGGTTCTAACCTGTTGCCT (site GCCGATTCTAG)  0.0394
79. GCCTGTTCTTGGGTTCTAACCTGTTGCCT (site GGCTGTTCTAG)  0.0257
80. GCGTACCCTTGGGTTCTAACCTGTTGCCT (site GGGTACCCTAG)  0.0245
81. GCGCTTACTTGGGTTCTAACCTGTTGCCT (site GGGCTTACTAG)  0.0205
82. GCGCCTCCTTGGGTTCTAACCTGTTGCAT (site GCGTCTCCTAT)  0.0165
83. GCCGATTCTTGGGTTCTAACCTGTTGCCT (site ACCGATTCTAT)  0.0154
84. GCCGAGACTTGGGTTCTAACCTGTTGCCT (site GCCGACACTAG)  0.0133
85. GCCGATACTTGGGTTCTAACCTGTTGCCA (site GCCGATACTTG)  0
86. GCGCCTCCTTGGGTTCTAACCTGTTGCAT (site GCGGCTCCTAT)  0

— the supplement of paper PMC11208160
